Measurements reported in patent US20230391826A1, “COMPOSITIONS AND METHODS FOR TREATING DISEASES” (Sanford Burnham Prebys Medical Discovery Institute, priority 2020, published 2023).
≈ marks a conversion by molar mass, not a printed value. Read-outs that look alike come from different tables or passages of the source. Where a SMILES comes first, the peptide text is derived from it. Bridges are numbered along the chain shown (N, C = ends). Roman numbers before positions name the chains, in order. [ ]: non-standard residue; d: D form. βAla = NCCC(=O)O

Legend:
EphA2 LBD [1] = molecular target: T1, EphA2 LBD (Homo sapiens, UniProt P29317); details: previous studies, cited from earlier work
T1 construct: made in house; host or cells: E. coli Origami 2(DE3)

EphA2 [2] = molecular target: T2, EphA2 (Homo sapiens, UniProt P29317); assay: EphA2 activation (Y588 phosphorylation) in cells by monomeric YSA derivatives; format: cell-based; set-up: EphA2 is the prevalent endogenously expressed EphA receptor in these cells; endogenous in cells; host or cells: PC3 prostate cancer cells
Description: However, as expected given their much higher potency, these two peptides are active at nanomolar concentrations. The C-terminal biotin promotes the agonistic activity of YSA derivative peptides. […] This is confirmed with the crystal structures. Thus, peptides with 1 to 7 residues between Prol 0, which is conserved in all YSA derivatives of Table 2, and the Lys-biotin residue, can all efficiently activate EphA2. […] Non-amidated β[…] has the ability to activate EphA2 in cells, even though the concentrations needed are about 10-fold higher than for the biotinylated peptide and the maximal […] phosphorylation induced by saturating peptide concentrations is about 40% lower. The C-terminally amidated version of the peptide loses the ability to activate EphA2, consistent with a role of the C-terminal negative charge for EphA2 activation even in the absence of biotin.

EphA2 [3] = molecular target: T2, EphA2; assay: EphA2 autophosphorylation on tyrosine 588 in PC3 cells (immunoblot dose-response); format: cell-based; set-up: EphA2 is the prevalent endogenously expressed EphA receptor in these cells; endogenous in cells; host or cells: PC3 prostate cancer cells; details: for Etop pY588: Table 3, 15 min, saturating ligand, pY588/EphA2 normalized to ephrinA1-Fc
Description: (§1) (FIG. 2A) Dose-response curves for EphA2 autophosphorylation on tyrosine 588 (pY588; purple) and for downstream inhibition of AKT phosphorylation (magenta). PC3 cells were treated for 15 min with different concentrations of the indicated peptides. […] The graphs show quantifications from multiple blots (averages ±SE; the number of experiments used to generate each curve is shown in Table 3). […] (FIG. 2B) Examples of immunoblots of lysates from PC3 cells treated with the indicated concentrations of representative ligands. […] A white vertical line indicates removal of irrelevant lanes. […] The bars show averages ±SE, and the individual measurements are shown as black dots. […] Plots of Etop versus EC50 for pY588 in FIG. 2D and for pAKT inh in FIG. 2E. Averages ±SE are shown for the peptides and ephrinA1.
To examine the agonistic properties of the different dimeric peptide ligands, EphA2 autophosphorylation on tyrosine 588 (Y588) was measured, which is indicative of receptor activation and mediates binding of SH2 domain-containing proteins that link EphA2 to various downstream signaling pathways (FIG. 7). For these experiments, PC3 prostate cancer cells were stimulated with the dimeric peptides because EphA2 is the prevalent endogenously expressed EphA receptor in these cells, allowing comparisons with ephrins.

EphA2 LBD [4] = molecular target: T1, EphA2 LBD; assay: Isothermal titration calorimetry (ITC) with soluble EphA2 LBD; format: binding
Description: (FIG. 10A-10E) The EphA2 LBD was titrated at 200-250 μM into 10-12.5 μM of the indicated peptide.
For ITC, all peptides are dissolved in DMSO and both the EphA2 LBD and the peptides are diluted to obtain a final buffer containing 9.5 mM HEPES, pH 7.9, 95 mM NaCl, and 5% DMSO. The experiments are carried out at 296 K (23° C.) using an ITC200 calorimeter (Microcal). Two-microliter aliquots of a peptide solution are injected into the cell containing 205 μL EphA2 LBD. 200-400 μM peptides are titrated into 20-40 μM EphA2 LBD. Experimental data are analyzed using the Origin software package (Microcal). The integrated values for the reaction heats are normalized to the amount of injected peptide after blank subtraction.

AKT = assay: Inhibition of AKT phosphorylation on S473 in PC3 cells; format: cell-based; details: for EC50 / Etop pAKT inhlb: Table 3; for EC50: PC3 cells treated for 15 min, read-out: ECsa pAKT inhlb.; for Etop pAKT inhlb: 15 min, 1-pAKT/AKT normalized to cells not treated with ligand
Description: as §1

[5] = molecular target: T3, EphA2 extracellular domain fused to Fc (EphA2-Fc) (Homo sapiens, UniProt P29317); assay: ELISA: inhibition of ephrinA5-AP binding to immobilized EphA2-Fc; details: inhibition of ephrin-A5 binding to EphA2; number of experiments in parentheses; read-out: Inc50 (nM) by ELISA
T3 construct: immobilized EphA2 extracellular domain fused to the Fc portion of an antibody (EphA2-Fc)
Description: FIG. 1A-1C illustrates an example of Potency and selectivity of EphA2-targeting dimeric peptides. (FIG. 1A) ELISAs comparing the ability of the peptides to inhibit binding of ephrin-A5 fused to alkaline phosphatase (ephrinA5-AP) to the immobilized EphA2 extracellular domain fused to the Fc portion of an antibody (EphA2-Fc). The graphs show averages ±SD from triplicate measurements from a representative experiment. IC50 values calculated from the fitted curves in each experiment are shown. Averages of IC50 values obtained from multiple experiments are shown in panel FIG. 1B and Table 3. The 10 nM peptide concentration is outlined in red. (FIG. 1B) Plot of the average IC50 values (listed in Table 3) for different ligands. […] (FIG. 1C) EphrinA5-AP binding to EphA receptors and ephrinB2-AP binding to EphB receptors in the presence of dimeric peptides representing each of the three configurations. Values are normalized to ephrin binding without peptide. The graphs show averages and SDs from triplicate measurements (with each measurement shown as a dot).

[6] = Peptide solubility in PBS/H2O/DMSO; format: physicochemical
Description: Peptide identity and purity are documented by mass spectrometry and high-performance liquid chromatography (HPLC). The peptide solubility values are determined. Concentrated peptide stocks are prepared in DMSO or H2O and stored frozen at −80° C.

EphA2 [7] = molecular target: T2, EphA2; assay: Bias factor βlig (pY588 versus pAKT inhibition, PC3 cells, reference ephrinA1-Fc); format: cell-based; set-up: EphA2 is the prevalent endogenously expressed EphA receptor in these cells; endogenous in cells; host or cells: PC3 prostate cancer cells; details: for βu (bias factor βlig): Table 3, reference ligand ephrinA1-Fc (βlig=0)
Description: FIG. 6 illustrates an example where Ligands can bias EphA2 signaling responses. The bias factor βlig was calculated for the indicated ligands using ephrinA1-Fc as the reference ligand. Statistical significance for the comparison of the different ligands with the reference ligand ephrinA1-Fc (βlig=0) was determined by one sample t test; *, P<0.05; **, P<0.01; ***, P<0.001; ****, P<0.0001.
FIG. 14A-14E illustrates an example where distinct factors are responsible for EphA2 biased signaling induced by different ligands. (FIG. 14A) Etop values for EphA2 Y588 phosphorylation, as in FIG. 2C. (FIG. 14B) Etop values for inhibition of AKT phosphorylation. (FIG. 14C) Graph of the ratios of the Etop values for EphA2 Y588 phosphorylation and inhibition of AKT phosphorylation, which are used in the βlig calculation. (FIG. 14D) Graph of the ratios of the EC50 values for EphA2 Y588 phosphorylation and inhibition of AKT phosphorylation, which are used in the βlig calculation. (FIG. 14E) Equation used to calculate the bias factor βlig for each ligand. The terms of the equation are rearranged, compared to equation (1) in the Materials and Methods, to better conform to the graphs in FIG. 14A-14D. **, P<0.01; ***, P<0.001; ****, P<0.0001; ns, not significant for the comparison with ephrinA1-Fc by one-way ANOVA and Dunnett's posthoc test.
The possibility of EphA2 biased signaling by analyzing the dose-response curves obtained with endogenous EphA2 in PC3 cells (FIG. 2A) was explored using approaches developed for GPCRs. This involves using EphA2 Y588 phosphorylation and AKT phosphorylation quantified as a function of ligand concentration to determine and compare the potency (EC50) and efficacy (Etop) for the two responses induced by different ligands. Remarkably, large differences among the ligands in the Etop values for Y588 phosphorylation (FIGS. 2C, 2D and 14A), but not in the Etop values for AKT inhibition (FIGS. 2E and 14B), were observed. In terms of relative efficacies for pY588 and pAKT inhibition, the C-terminally linked dimers and monomeric ligands behave differently from ephrinA1-Fc, while the N-terminally linked dimers and the head-to-tail dimer (8) are similar to ephrinA1-Fc (FIG. 14C). […] Thus, the type of linkage affects EphA2 signaling properties induced by the dimeric peptides.
The determined EC50 and Etop values allowed us to calculate the bias factor βlig for the two different responses induced by the various ligands relative to ephrinA1-Fc as the reference ligand (FIG. 14E). […] Remarkably, the bias originates from different mechanisms that depend on the class of ligands, with the N-terminally linked and head-to-tail dimers modulating relative potencies and the C-terminally-linked dimers and monomers modulating relative efficacies.

[8] = DMSO, Table 4, third of PBS/H20/DMSO, read-out: Solubility in DMSO
[9] = DMSO, third of PBS/H2O/DMSO, read-out: Solubility in DMSO
[10] = PBS, Table 4, first of PBS/H20/DMSO, read-out: Solubility in PBS
[11] = PBS, first of PBS/H2O/DMSO, read-out: Solubility in PBS
[12] = water, Table 4, second of PBS/H20/DMSO, read-out: Solubility in H20
[13] = water, second of PBS/H2O/DMSO, read-out: Solubility in H2O

T2 sequence (P29317 24-976): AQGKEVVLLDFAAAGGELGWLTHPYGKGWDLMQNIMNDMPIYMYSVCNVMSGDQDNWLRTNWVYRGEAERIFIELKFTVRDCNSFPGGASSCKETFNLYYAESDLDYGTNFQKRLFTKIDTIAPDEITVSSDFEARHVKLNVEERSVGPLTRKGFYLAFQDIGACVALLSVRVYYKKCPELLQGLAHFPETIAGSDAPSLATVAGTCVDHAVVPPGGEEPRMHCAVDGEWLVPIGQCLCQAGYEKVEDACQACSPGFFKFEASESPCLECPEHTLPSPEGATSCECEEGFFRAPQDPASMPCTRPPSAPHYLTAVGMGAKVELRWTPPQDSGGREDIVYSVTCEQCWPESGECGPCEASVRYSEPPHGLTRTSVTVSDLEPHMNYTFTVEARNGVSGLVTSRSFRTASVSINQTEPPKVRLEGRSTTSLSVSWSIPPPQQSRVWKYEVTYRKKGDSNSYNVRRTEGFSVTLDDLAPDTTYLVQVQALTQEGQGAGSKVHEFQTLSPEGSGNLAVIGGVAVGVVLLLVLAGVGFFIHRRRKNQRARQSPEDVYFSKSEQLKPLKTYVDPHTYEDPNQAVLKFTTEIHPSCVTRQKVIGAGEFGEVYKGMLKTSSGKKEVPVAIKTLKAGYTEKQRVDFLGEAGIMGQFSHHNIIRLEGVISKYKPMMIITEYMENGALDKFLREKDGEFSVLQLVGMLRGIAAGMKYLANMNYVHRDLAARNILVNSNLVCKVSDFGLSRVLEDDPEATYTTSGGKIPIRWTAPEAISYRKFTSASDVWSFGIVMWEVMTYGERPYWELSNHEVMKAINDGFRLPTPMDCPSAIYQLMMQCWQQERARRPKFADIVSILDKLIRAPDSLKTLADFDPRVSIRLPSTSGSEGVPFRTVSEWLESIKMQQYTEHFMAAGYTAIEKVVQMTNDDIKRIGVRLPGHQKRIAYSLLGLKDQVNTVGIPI
T1 sequence (P29317 28-200): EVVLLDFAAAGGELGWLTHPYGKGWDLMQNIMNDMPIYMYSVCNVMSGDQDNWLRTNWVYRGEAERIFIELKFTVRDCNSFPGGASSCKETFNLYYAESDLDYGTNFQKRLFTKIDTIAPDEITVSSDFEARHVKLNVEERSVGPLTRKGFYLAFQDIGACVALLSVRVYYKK
T3 sequence (P29317 24-537 limits assumed): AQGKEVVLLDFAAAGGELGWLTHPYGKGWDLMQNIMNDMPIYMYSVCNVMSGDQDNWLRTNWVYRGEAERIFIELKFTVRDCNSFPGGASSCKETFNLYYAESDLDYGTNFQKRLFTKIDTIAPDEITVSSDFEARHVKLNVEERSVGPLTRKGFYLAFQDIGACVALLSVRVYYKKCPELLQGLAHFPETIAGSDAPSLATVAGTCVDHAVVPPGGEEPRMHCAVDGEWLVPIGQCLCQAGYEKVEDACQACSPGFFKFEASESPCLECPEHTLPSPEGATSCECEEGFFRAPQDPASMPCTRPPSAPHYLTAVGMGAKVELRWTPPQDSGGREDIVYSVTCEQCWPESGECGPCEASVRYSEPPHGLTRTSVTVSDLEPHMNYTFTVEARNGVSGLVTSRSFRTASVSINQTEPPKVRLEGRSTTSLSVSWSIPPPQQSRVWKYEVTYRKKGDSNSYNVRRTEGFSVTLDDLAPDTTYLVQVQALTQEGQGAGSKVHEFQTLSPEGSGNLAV

SMILES	Etop pY588 (EphA2 [3])	EC50 (AKT)	Etop pAKT inhlb (AKT; PC3 cells)	IC50 [5]	solubility [6, 8]	solubility [6, 9]	solubility [6, 10]	solubility [6, 11]	solubility [6, 12]	solubility [6, 13]	βu (bias factor βlig) (EphA2 [7])	also measured
CC(C)C[C@H](NC(=O)[C@H](Cc1c[nH]c2ccccc12)NC(=O)CCN)C(=O)N[C@@H](C)C(=O)N[C@@H](Cc1ccc(O)cc1)C(=O)N1CCC[C@H]1C(=O)N[C@@H](CC(=O)O)C(=O)N[C@@H](CO)C(=O)N[C@H](C(=O)N1CCC[C@H]1C(=O)N[C@@H](Cc1ccc(O)cc1)C(=O)N[C@@H](CCCNC(=N)N)C(=O)N1CCC[C@H]1C(=O)N[C@@H](CCCCN)C(=O)O)C(C)C [βA-WLA-YRPK]	–	–	–	–	–	–	–	–	–	–	–	improvement of binding affinity compared to monomeric YSA-GSGSK-bio (EphA2 LBD [1]): 50 fold; Kd (EphA2 LBD [1]; read-out: binding affinity for the EphA2 LBD measured by ITC): ~200 nM; maximal Y588 phosphorylation at saturating peptide concentrations, lower than the biotinylated peptide (EphA2 [2]): about 40%; concentrations needed to activate EphA2 in cells relative to the biotinylated peptide (EphA2 [2]; higher than for βA-WLA-YRPK-bio): about 10 fold
CC(C)C[C@H](NC(=O)[C@H](Cc1c[nH]c2ccccc12)NC(=O)CCN)C(=O)N[C@@H](C)C(=O)N[C@@H](Cc1ccc(O)cc1)C(=O)N1CCC[C@H]1C(=O)N[C@@H](CC(=O)O)C(=O)N[C@@H](CO)C(=O)N[C@H](C(=O)N1CCC[C@H]1C(=O)N[C@@H](Cc1ccc(O)cc1)C(=O)NCC(=O)N[C@@H](CO)C(=O)NCC(=O)N[C@@H](CSSC[C@H](NC(=O)CNC(=O)[C@H](CO)NC(=O)CNC(=O)[C@H](Cc1ccc(O)cc1)NC(=O)[C@@H]1CCCN1C(=O)[C@@H](NC(=O)[C@H](CO)NC(=O)[C@H](CC(=O)O)NC(=O)[C@@H]1CCCN1C(=O)[C@H](Cc1ccc(O)cc1)NC(=O)[C@H](C)NC(=O)[C@H](CC(C)C)NC(=O)[C@H](Cc1c[nH]c2ccccc12)NC(=O)CCN)C(C)C)C(=O)O)C(=O)O)C(C)C [compound 1, βA-WLA-YGSGC dimer (C-ter)] (I: H-[βAla]WLAYPDSVPYGSGC-OH / II: H-[βAla]WLAYPDSVPYGSGC-OH; disulfide I:15-II:15; N-terminus and C-terminus assumed)	0.49 ± 0.06	39 ± 8 nM	0.90 ± 0.04	71 ± 26 nM	5000 µg/mL (≈ 1580 µM)	5000 µg/mL (≈ 1580 µM)	< 100 µg/mL	< 100 µg/mL	< 100 µg/mL	< 100 µg/mL	0.506 ± 0.12	Kd (EphA2 LBD [4]): 2900 nM; N (binding stoichiometry by ITC) (EphA2 LBD [4]; Table 3): N = 1.7 ± 0.2; -TΔS (EphA2 LBD [4]; Table 6): 16.30 ± 11 kcal/mol; N (EphA2 LBD [4]; Table 6, binding stoichiometry): 1.7 ± 0.2; ΔG (EphA2 LBD [4]; Table 6, change in Gibbs energy): -7.55 ± 0.27 kcal/mol; ΔH (EphA2 LBD [4]; Table 6, change in enthalpy): -23.85 ± 11 kcal/mol
CC(C)C[C@H](NC(=O)[C@H](Cc1c[nH]c2ccccc12)NC(=O)[C@H](C)NC(=O)CNC(=O)[C@@H](N)CSSC[C@H](N)C(=O)NCC(=O)N[C@@H](C)C(=O)N[C@@H](Cc1c[nH]c2ccccc12)C(=O)N[C@@H](CC(C)C)C(=O)N[C@@H](C)C(=O)N[C@@H](Cc1ccc(O)cc1)C(=O)N1CCC[C@H]1C(=O)N[C@@H](CC(=O)O)C(=O)N[C@@H](CO)C(=O)N[C@H](C(=O)N1CCC[C@H]1C(=O)N[C@@H](Cc1ccc(O)cc1)C(=O)N[C@@H](CCCNC(=N)N)C(=O)N1CCC[C@H]1C(=O)N[C@@H](CCCCN)C(N)=O)C(C)C)C(=O)N[C@@H](C)C(=O)N[C@@H](Cc1ccc(O)cc1)C(=O)N1CCC[C@H]1C(=O)N[C@@H](CC(=O)O)C(=O)N[C@@H](CO)C(=O)N[C@H](C(=O)N1CCC[C@H]1C(=O)N[C@@H](Cc1ccc(O)cc1)C(=O)N[C@@H](CCCNC(=N)N)C(=O)N1CCC[C@H]1C(=O)N[C@@H](CCCCN)C(N)=O)C(C)C [compound 6, CGA-WLA-YRPKam dimer (N-ter)]	0.98 ± 0.08	0.08 ± 0.02 nM	0.97 ± 0.03	0.4 ± 0.1 nM	10000 µg/mL (≈ 2750 µM)	10000 µg/mL (≈ 2750 µM)	< 100 µg/mL	< 100 µg/mL	5000 µg/mL (≈ 1370 µM)	5000 µg/mL (≈ 1370 µM)	0.51 ± 0.13	Emax PY588 (EphA2 [3]; ephrinA1Fc = 1.00): 0.80 ± 0.01; EC50 (EphA2 [3]; read-out: EC50 PY588): 0.12 ± 0.01 nM; IC50 (AKT; PC3 cells): 0.043 ± 0.007 nM; Blig (EphA2 [7]; bias factor, reference ligand ephrinA1Fc): 0.36 ± 0.09
